According to US20060148712A1, “Monocyte chemoattractant activity of galectin-3” (priority 2000, published 2006):
Where two headings read alike, the source gives them in different places.

Tests used:
[1] = system: human peripheral blood monocytes; test: Monocyte migration assay in vitro (96-well micro Boyden chamber); type: cell-based; conditions: for inhibition at 10000 µM: Homo sapiens, Monocyte, 10 mM lactose, read-out: Inhibition of galectin-3-induced monocyte migration
Description: Human monocytes were purified from venous blood of normal volunteers essentially as described previously (Nakagawara, et al., J. Clin. Invest. 68:1243-53 (1981)). In brief, after erythrocytes were sedimented by addition of 6% dextran saline solution (I part to 5 parts heparinized blood), the leukocytes were collected, washed twice, and resuspended in Ca^2+ and Mg^2+-free HBSS containing 5% autologous serum. Mononuclear cells were acquired by centrifugation of the leukocyte suspension on Ficoll Paque at 1,500 rpm for 15 min. The cells were resuspended in RPMI 1640 containing 10% autologous serum and allowed to adhere to sterile tissue culture plates for 30 min in a humidified incubator at 5% CO2 and 37° C. After incubation, non-adherent cells were removed by washing the plates three times with PBS at 37° C. […] To detach and harvest the adhered monocytes, 1 mM EDTA-PBS containing 5% serum was added and the plates were incubated on ice for 30 min. The monocytes were washed twice with HBSS and resuspended in RPMI 1640 with 0.1% autologous serum for the migration assay. The viability of monocytes was determined by trypan blue exclusion and was more than 98%. In some experiments, monocytes were purified according to another method using a Percoll discontinuous gradient described previously (Chuluyan & Issekutz, J. Clin. Invest. 92:2768-77 (1993)).
(§1) Monocyte migration was examined by using 96-well micro Boyden chambers with 5 μm-pore size filters (Neuro Probe, Inc., Gaithersburg, Md.) as described previously (Falk, et al., J. Immunol. Meth. 33:239-47 (1980)), Chertov, et al., J. Biol. Chem. 271:2935-40 (1996)). Briefly, after the indicated concentrations of galectin-3 in RPMI 1640 were applied to the lower chambers, purified monocyte suspensions (2.5-5.0×10^4/well) were applied to the upper chambers. After incubation of the chambers for 1 h in a humidified incubator at 5% CO2 and 37° C., the filters were washed once with PBS and processed with Wright stain. The number of monocytes on the bottom side of the filters was counted in 5 to 10 high-power fields. Monocyte migration was calculated from the average numbers of the counted cells and expressed as % of input cells in a well.
In assays using inhibitory reagents, the purified monocytes were pretreated with or without the indicated concentrations of B2C10 (Liu, et al., Biochemistry 35:[…] (1996)) or anti-DNP IgG1 (Liu, et al., J. Immunol. 124:2728-31 (1980)) as an isotype-matched control mAb, galectin-3C, or PTX at 37° C. for 30 min. Then the cells were applied to the upper chambers in the presence of these inhibitors at the same concentrations used in the pretreatment. In the assays using lactose and sucrose, the sugars were added to the lower chambers at the initiation of the migration assay.

human monocytes = test: Measurement of Ca2+ influx in monocytes (Indo-1 AM); type: cell-based; conditions: for Induction of Ca2+ influx in human monocytes by chemokine: 100 ng/ml
Method: Intracellular concentrations of Ca^2+ were measured by using Indo-1 AM according to a previously described method (Lopez, et al., Cytometry 10:165-73 (1989)). Purified monocytes were resuspended in HBSS containing 1 mM Ca^2+, 1 mM Mg^2+, and 5% autologous serum, and incubated with […] Indo-1 AM for 45 min at 37° C. The cells were washed once, resuspended in the same buffer, and stimuli and inhibitors were added at the time points specified in the Figure Legends. Intracellular Ca^2+ concentration was measured by monitoring light emission at 405 and 485 nm to an excitation wavelength of 355 nm, using an AMINCO-Bowman series 2 luminescence spectrometer (Rochester, N.Y.).

monocytes = type: cell-based, human; conditions: 1 μg/ml of PTX; data not shown
Method: The possibility that G-proteins might be involved in galectin-3-induced monocyte migration was tested using the inhibitor pertussis toxin (PTX), because it is well known that many chemoattractants, including all chemokines, utilize G-protein-coupled receptors to transduce signals into the cell (Baggiolini, Nature 392:565-68 (1998)).

[2] = system: cultured human peripheral blood macrophages; test: Migration of cultured human peripheral blood macrophages in vitro; type: cell-based; conditions: confirmed by applicant (FIG. 9)
Description: (§2) Human macrophages were obtained by culturing peripheral blood monocytes in vitro for 7 days as previously described (Fantuzzi, et al., Blood 94:875-83 (1999)). Human alveolar macrophages were obtained from bronchoalveolar lavage (BAL) fluid according to a previously described protocol (Sugimoto et al, Am. Rev. Respir. Dis. 139:1329-35 (1989)). The purity of the macrophages was over 90% and the viability was over 99%.
as §1

[3] = system: human alveolar macrophages; test: Migration of human alveolar macrophages in vitro; type: cell-based
Description: as §2, §1

Question: “pertussis toxin [PTX, reference compound]” was tested. Which “Inhibition of MCP-1-induced monocyte migration” value ([1]; 1 μg/ml of PTX, all MCP-1 concentrations examined) did it give?
Answer: Its value is “significantly inhibited”.

Question: What about the “Decrease of galectin-3-induced monocyte migration” value (“Decrease” below) ([1]; PTX, 1 μM galectin-3, p<0.01, n=5) of the same compound?
Answer: Its value is 91.2%.

Question: And the “Inhibition of galectin-3-induced monocyte migration” value ([1]; PTX, 10 or 100 nM galectin-3, p=0.8501 and 0.3093, n=5)?
Answer: Its value is “did not significantly inhibit”.

Question: And the “Effect of PTX on MCP-1-induced Ca2+ influx” value (human monocytes; 1 μg/ml of PTX, 100 ng/ml MCP-1)?
Answer: The value was “blocked”.

Question: What about the “Effect of PTX on galectin-3-induced Ca2+ influx” value (human monocytes; 1 μg/ml of PTX, 1 μM galectin-3) of the same compound?
Answer: Its value is “blocked”.

Question: And the Viability of monocytes (monocytes)?
Answer: The Viability of monocytes was “did not decrease the viability”.

Question: Which “Effect on monocyte migration induced by MCP-1” value ([1]; 5 mM and 10 mM lactose) does the source give for OC[C@H]1O[C@@H](O[C@H]2[C@H](O)[C@@H](O)C(O)O[C@@H]2CO)[C@H](O)[C@@H](O)[C@H]1O (some centres unmarked) [lactose, reference compound] here?
Answer: The value was “did not affect”.

Question: And the “Decrease” value ([1]; 5 mM lactose, 10 nM galectin-3, p<0.05, n=3)?
Answer: The value was 63.8%.

Question: What about the “Decrease” value ([1]; 5 mM lactose, 100 nM galectin-3, p<0.05, n=3) of the same compound?
Answer: Its value is 71.5%.

Question: And the “Decrease” value ([1]; 5 mM lactose, 1 μM galectin-3, p<0.05, n=3)?
Answer: The value was 57.6%.

Question: And the inhibition at 10000 µM ([1]; 10 nM galectin-3, p<0.05, n=3)?
Answer: Its inhibition at 10000 µM is 78%.

Question: And the inhibition at 10000 µM ([1]; 100 nM galectin-3, p<0.05, n=3)?
Answer: The inhibition at 10000 µM was 74.1%.

Question: What about the inhibition at 10000 µM ([1]; 1 μM galectin-3, p<0.05, n=3) of the same compound?
Answer: The inhibition at 10000 µM was 71.1%.

Question: And the “Inhibition of MCP-1-induced Ca2+ influx” value (human monocytes; 5 mM lactose, 100 ng/ml MCP-1)?
Answer: The value was “not”.

Question: And the “Inhibition of galectin-3-induced Ca2+ influx” value (human monocytes; 5 mM lactose, 1 μM galectin-3)?
Answer: The value was “complete inhibition”.

Question: “MCP-1: human recombinant MCP-1, a strong chemoattractant for monocytes (Pepro Tech)” was tested. Which “Concentration that induced maximum monocyte migration” value ([1]; dose-response experiments, also printed as 11.6 nM) did it give?
Answer: The value was 100 ng/mL.

Question: What about the “Induction of Ca2+ influx in human monocytes by chemokine” value (human monocytes) of the same compound?
Answer: Its value is “induced a Ca^2+ influx”.

Question: And the “Response of cultured human macrophages to MCP-1” value [2]?
Answer: The value was “do not respond”.

Question: And the “Effect on alveolar macrophage migration” value ([3]; FIG. 10, exp. 1)?
Answer: Its value is “no effect”.

Question: And the “Effect on alveolar macrophage migration” value ([3]; FIG. 10, exp. 2)?
Answer: The value was “negligible effect”.

Question: For OC[C@H]1O[C@@](CO)(O[C@H]2O[C@H](CO)[C@@H](O)[C@H](O)[C@H]2O)[C@@H](O)[C@@H]1O [sucrose, reference compound], which “Effect on galectin-3-induced monocyte migration” value ([1]; sucrose 5 mM or 10 mM, negative control sugar) is on record?
Answer: Its value is “no significant effect”.

Question: And the “Inhibition of galectin-3-induced Ca2+ influx” value (human monocytes; 5 mM sucrose, 1 μM galectin-3)?
Answer: The value was “not”.

Question: SDF-1α was tested. Which “Induction of Ca2+ influx in human monocytes by chemokine” value (human monocytes) did it give?
Answer: The value was “induced a Ca^2+ influx”.
